Data: paper PMC7144380 (Molecules, 2020)
Like-named read-outs stand apart in the source and are kept apart here.

What was measured:
[1] = biological target: T1, δ-opioid receptor (DOR), rat (Rattus norvegicus, UniProt P33533); experiment: […]GTPγS binding, rat brain membranes; assay type: biochemical; conditions: agonist; pH 7.4, 30 °C, 60 min, 30 µM GDP
T1 construct: gene Oprd1; native receptor in rat brain membrane homogenate

[2] = biological target: T2, MOR, mouse vas deferens (Mus musculus, UniProt P42866); conditions: read-out: EC50 ± S.E.M. (nM) / MVD
T2 construct: gene Oprm1; native receptor in isolated mouse vas deferens

[3] = biological target: T3, µ-opioid receptor (MOR), rat (Rattus norvegicus, UniProt P33535); assay type: binding; conditions: read-out: Ki ± S.E.M. (nM) / [^3H]DAMGO (μ) ^1
T3 construct: gene Oprm1; native receptor in rat brain membrane homogenate or rat vas deferens

[4] = biological target: T1, δ-opioid receptor (DOR), rat; experiment: [3H]Ile5,6-deltorphin II competition, rat brain membranes; assay type: binding; conditions: 50 mM Tris-HCl pH 7.4, 35 °C, 45 min; unreliable (incomplete displacement)
[5] = biological target: T3, µ-opioid receptor (MOR), rat; experiment: […]GTPγS binding, rat brain membranes; assay type: biochemical; conditions: read-out: EC50 ± S.E.M.; agonist; pH 7.4, 30 °C, 60 min, 30 µM GDP; mixed opioid receptors in tissue, assigned to MOR by the authors
[6] = biological target: T4, κ-opioid receptor (KOR), guinea pig (Cavia porcellus, UniProt P41144); experiment: [3H]U-69593 competition, guinea pig brain membranes; assay type: binding; conditions: 50 mM Tris-HCl pH 7.4, 30 °C, 30 min; unreliable (partial displacement)
T4 construct: gene OPRK1; native receptor in guinea pig brain membrane homogenate
Text: [3H]U-69593 competition, guinea pig brain membranes on κ-opioid receptor (KOR), guinea pig

[7] = biological target: T1, δ-opioid receptor (DOR), rat; experiment: [3H]Ile5,6-deltorphin II competition, rat brain membranes; assay type: binding; conditions: read-out: Ki ± S.E.M. (nM) / [^3H]IleDelt II (δ) ^1; 50 mM Tris-HCl pH 7.4, 35 °C, 45 min; Cheng-Prusoff

## CC(C)[C@H](NC(=O)[C@H](CCC(=O)O)NC(=O)[C@H](Cc1ccccc1)NC(=O)[C@@H](C)NC(=O)[C@@H](N)Cc1ccc(O)cc1)C(=O)N[C@H](C(=O)NCC(N)=O)C(C)C [deltorphin II]
[1]
  EC50: 44.4 ± 23.5 nM

## COc1ccc2c3c1O[C@H]1[C@@H](OS(=O)(=O)O)C=C[C@H]4[C@@H](C2)N(C)CC[C@@]341 [codeine-6-O-sulfate]
[2]; agonist, Mg2+-free Krebs, 31 °C, MOR assigned by naloxone Ke
  EC50: > 1000 nM
[3]; 50 mM Tris-HCl pH 7.4, 35 °C, 45 min, Cheng-Prusoff
  Ki: 96.9 ± 20.3 nM
[4]
  Ki ± S.E.M. (nM) / [^3H]IleDelt II (δ) ^1: 968.28 ± 471.38 nM

## COc1ccc2c3c1O[C@H]1[C@@H](OS(=O)(=O)O)C=C[C@@]4(OC)[C@@H](C2)N(C)CC[C@]314 [14-methoxycodeine-6-O-sulfate]
[5]
  EC50: 301 ± 197 nM
[6]
  Ki ± S.E.M. (nM) / [^3H]U-69593 (κ) ^2: 245.57 ± 215.01 nM
[7]
  Ki: 346 ± 133 nM
[2]
  EC50: 239 ± 6.15 nM
[3]
  Ki: 3.37 ± 0.48 nM
